Molecular target: T1, recombinant human caspase-3 (Homo sapiens, UniProt P42574)
T1 sequence (P42574 29-175): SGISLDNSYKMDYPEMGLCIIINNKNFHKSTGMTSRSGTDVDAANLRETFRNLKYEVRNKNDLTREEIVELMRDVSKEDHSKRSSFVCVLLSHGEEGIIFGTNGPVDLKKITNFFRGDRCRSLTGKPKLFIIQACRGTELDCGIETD
T1 sequence (P42574 176-277): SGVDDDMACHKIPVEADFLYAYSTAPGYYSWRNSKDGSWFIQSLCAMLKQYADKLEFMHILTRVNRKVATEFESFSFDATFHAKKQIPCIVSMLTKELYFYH
Experiment: Caspase-Glo […] luminescence assay, dose-response
Type: biochemical

Row | IC50 | Compound
1 | 10.4 ± 0.5 µM | O=C(O)c1cc(-c2ccc(F)cc2F)ccc1O [Diflunisal]
2 | 47 ± 6.07 µM | CC(C(=O)O)c1cccc(Oc2ccccc2)c1 (stereo not drawn) [Fenoprofen]
3 | 54.3 ± 0.6 µM | CC(C(=O)O)c1ccc2c(c1)Cc1cccnc1O2 (stereo not drawn) [Pranoprofen]

Reference: doi:10.1101/356956v1 (biorxiv, 2018)
